Target: T1, ligand binding domain of human RORγ (A262-S507) (Homo sapiens, UniProt P51449)
T1 construct: made in house; host or cells: E. coli
T1 sequence (P51449 262-507): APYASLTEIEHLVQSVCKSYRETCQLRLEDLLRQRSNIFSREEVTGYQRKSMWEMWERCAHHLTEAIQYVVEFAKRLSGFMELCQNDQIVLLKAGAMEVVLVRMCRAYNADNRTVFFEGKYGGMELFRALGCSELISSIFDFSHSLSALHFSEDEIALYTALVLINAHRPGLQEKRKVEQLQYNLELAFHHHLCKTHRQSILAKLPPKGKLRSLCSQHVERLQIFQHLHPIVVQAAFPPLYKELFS
Experiment: General RORγ SPA binding assay (competition with [3H]25-hydroxycholesterol)
Settings: RORγ SPA binding assay, inhibition of [3H]25-hydroxycholesterol binding; read-out: IC50
In short: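 N-terminally His-tagged protein was expressed in E. coli and nickel-purified. Then 50 nM protein was preincubated with compound for 15 min at room temperature in PBS with 0.5% fatty acid free BSA, followed by radioligand for 15 min and copper His-tag SPA beads for 30 min. IC50 came from percent inhibition of binding.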

Compound | IC50
Cc1ncc(C(C)(O)CNc2cccc(C(F)(F)F)n2)c(C2CCN(C(=O)Nc3c(F)cccc3F)CC2)n1 (stereo not shown) [Compound D16, N-(2,6-Difluorophenyl)-4-[5-(1-hydroxy-1-methyl-2-{[6-(trifluoromethyl)pyridin-2-yl]amino}ethyl)-2-methylpyrimidin-4-yl]piperidine-1-carboxamide] | 12.3 nM
Cc1ncc(C(C)(O)CNc2ccnc(C(F)(F)F)n2)c(C2CCN(C(=O)Nc3c(F)cccc3F)CC2)n1 (stereo not shown) [Compound D17, N-(2,6-Difluorophenyl)-4-[5-(1-hydroxy-1-methyl-2-{[2-(trifluoromethyl)pyrimidin-4-yl]amino}ethyl)-2-methylpyrimidin-4-yl]piperidine-1-carboxamide] | 88.8 nM
Cc1ncc(C(C)(O)CNc2ccnc(C(F)(F)F)n2)c(C2CCN(C(=O)Nc3c(F)cccc3C(F)(F)F)CC2)n1 (stereo not shown) [Compound D18, N-[2-Fluoro-6-(trifluoromethyl)phenyl]-4-[5-(1-hydroxy-1-methyl-2-{[2-(trifluoromethyl)pyrimidin-4-yl]amino}ethyl)-2-methylpyrimidin-4-yl]piperidine-1-carboxamide] | 112 nM
Cc1ncc(C(C)(O)CN(C)c2ccnc(C(F)(F)F)n2)c(C2CCN(C(=O)Nc3c(F)cccc3F)CC2)n1 (stereo not shown) [Compound D19, N-(2,6-Difluorophenyl)-4-[5-(1-hydroxy-1-methyl-2-{methyl[2-(trifluoromethyl)pyrimidin-4-yl]amino}ethyl)-2-methylpyrimidin-4-yl]piperidine-1-carboxamide] | 196 nM
Cc1ncc(C(C)(O)CN(C)c2ccnc(C(F)(F)F)n2)c(C2CCN(C(=O)Cc3c(F)cccc3F)CC2)n1 (stereo not shown) [Compound D20, 2-(4-{1-[(2,6-Difluorophenyl)acetyl]piperidin-4-yl}-2-methylpyrimidin-5-yl)-1-{methyl[2-(trifluoromethyl)pyrimidin-4-yl]amino}propan-2-ol] | 72.8 nM
Cc1ncc(C(C)(O)CNc2nccc(C(F)(F)F)n2)c(C2CCN(C(=O)Nc3c(F)cccc3F)CC2)n1 (stereo not shown) [Compound D21, N-(2,6-Difluorophenyl)-4-[5-(1-hydroxy-1-methyl-2-{[4-(trifluoromethyl)pyrimidin-2-yl]amino}ethyl)-2-methylpyrimidin-4-yl]piperidine-1-carboxamide] | 47.7 nM
Cc1ncc(C(C)(O)CNc2nccc(C(F)(F)F)n2)c(C2CCN(C(=O)Nc3c(F)cccc3C(F)(F)F)CC2)n1 (stereo not shown) [Compound D22, N-[2-Fluoro-6-(trifluoromethyl)phenyl]-4-[5-(1-hydroxy-1-methyl-2-{[4-(trifluoromethyl)pyrimidin-2-yl]amino}ethyl)-2-methylpyrimidin-4-yl]piperidine-1-carboxamide] | 76.1 nM
Cc1ncc(C(C)(O)CNc2nccc(C(F)(F)F)n2)c(C2CCN(C(=O)Cc3c(F)cccc3F)CC2)n1 (stereo not shown) [Compound D23, 2-(4-{1-[(2,6-Difluorophenyl)acetyl]piperidin-4-yl}-2-methylpyrimidin-5-yl)-1-{[4-(trifluoromethyl)pyrimidin-2-yl]amino}propan-2-ol] | 18.5 nM
Cc1ncc(C(C)(O)COc2cccc(C(F)(F)F)n2)c(C2CCN(C(=O)Cc3c(F)cccc3F)CC2)n1 (stereo not shown) [Compound D24, 2-(4-{1-[(2,6-difluorophenyl)acetyl]piperidin-4-yl}-2-methylpyrimidin-5-yl)-1-{[6-(trifluoromethyl)pyridin-2-yl]oxy}propan-2-ol] | 5 nM
Cc1ncc(C(C)(O)COc2cccc(C(F)(F)F)n2)c(C2CCN(C(=O)Nc3c(F)cccc3F)CC2)n1 (stereo not shown) [Compound D25, N-(2,6-difluorophenyl)-4-[5-(1-hydroxy-1-methyl-2-{[6-(trifluoromethyl)pyridin-2-yl]oxy}ethyl)-2-methylpyrimidin-4-yl]piperidine-1-carboxamide] | 8.7 nM
CSc1ncc(C(C)(O)COc2cccc(C(F)(F)F)n2)c(C2CCN(C(=O)Nc3c(F)cccc3F)CC2)n1 (stereo not shown) [Compound D26, N-(2,6-Difluorophenyl)-4-[5-(1-hydroxy-1-methyl-2-{[6-(trifluoromethyl)pyridin-2-yl]oxy}ethyl)-2-(methylthio)pyrimidin-4-yl]piperidine-1-carboxamide] | 12.6 nM

Other lines, results leading:

IC50 | Compound
3.6 nM | CC(O)(COc1cccc(C(F)(F)F)n1)c1cnc(N)nc1C1CCN(C(=O)Nc2c(F)cccc2F)CC1 (stereo not shown) [Compound D27, 4-[2-Amino-5-(1-hydroxy-1-methyl-2-{[6-(trifluoromethyl)pyridin-2-yl]oxy}ethyl)pyrimidin-4-yl]-N-(2,6-difluorophenyl)piperidine-1-carboxamide]
14.7 nM | CSc1ncc(C(C)(O)COc2ccnc(C(F)(F)F)n2)c(C2CCN(C(=O)Nc3c(F)cccc3F)CC2)n1 (stereo not shown) [Compound D28, N-(2,6-Difluorophenyl)-4-[5-(1-hydroxy-1-methyl-2-{[2-(trifluoromethyl)pyrimidin-4-yl]oxy}ethyl)-2-(methylthio)pyrimidin-4-yl]piperidine-1-carboxamide]
14.4 nM | CC(O)(COc1ccnc(C(F)(F)F)n1)c1cnc(N)nc1C1CCN(C(=O)Nc2c(F)cccc2F)CC1 (stereo not shown) [Compound D29, 4-[2-Amino-5-(1-hydroxy-1-methyl-2-{[2-(trifluoromethyl)pyrimidin-4-yl]oxy}ethyl)pyrimidin-4-yl]-N-(2,6-difluorophenyl)piperidine-1-carboxamide]
4.3 nM | CC(O)(COc1ccnc(C(F)(F)F)n1)c1cnc(N)nc1C1CCN(C(=O)Cc2c(F)cccc2F)CC1 (stereo not shown) [Compound D30, 2-(2-Amino-4-{1-[(2,6-difluorophenyl)acetyl]piperidin-4-yl}pyrimidin-5-yl)-1-{[2-(trifluoromethyl)pyrimidin-4-yl]oxy}propan-2-ol]
119 nM | CC(=O)Nc1ncc(C(C)(O)COc2ccnc(C(F)(F)F)n2)c(C2CCN(C(=O)Nc3c(F)cccc3F)CC2)n1 (stereo not shown) [Compound D31, 4-[2-(Acetylamino)-5-(1-hydroxy-1-methyl-2-{[2-(trifluoromethyl)pyrimidin-4-yl]oxy}ethyl)pyrimidin-4-yl]-N-(2,6-difluorophenyl)piperidine-1-carboxamide]
13.9 nM | CC(=O)Nc1ncc(C(C)(O)COc2cccc(C(F)(F)F)n2)c(C2CCN(C(=O)Nc3c(F)cccc3F)CC2)n1 (stereo not shown) [Compound D32, 4-[2-(Acetylamino)-5-(1-hydroxy-1-methyl-2-{[6-(trifluoromethyl)pyridin-2-yl]oxy}ethyl)pyrimidin-4-yl]-N-(2,6-difluorophenyl)piperidine-1-carboxamide]
14 nM | CC(=O)Nc1ncc(C(C)(O)COc2ccnc(C(F)(F)F)n2)c(C2CCN(C(=O)Cc3c(F)cccc3F)CC2)n1 (stereo not shown) [Compound D33, N-[4-{1-[(2,6-Difluorophenyl)acetyl]piperidin-4-yl}-5-(1-hydroxy-1-methyl-2-{[2-(trifluoromethyl)pyrimidin-4-yl]oxy}ethyl)pyrimidin-2-yl]acetamide]
15 nM | CC(O)(COc1ccnc(C(F)(F)F)n1)c1cnc(NC2CC2)nc1C1CCN(C(=O)Nc2c(F)cccc2F)CC1 (stereo not shown) [Compound D34, 4-[2-(Cyclopropylamino)-5-(1-hydroxy-1-methyl-2-{[2-(trifluoromethyl)pyrimidin-4-yl]oxy}ethyl)pyrimidin-4-yl]-N-(2,6-difluorophenyl)piperidine-1-carboxamide]
14.8 nM | CCNc1ncc(C(C)(O)COc2ccnc(C(F)(F)F)n2)c(C2CCN(C(=O)Nc3c(F)cccc3F)CC2)n1 (stereo not shown) [Compound D35, N-(2,6-Difluorophenyl)-4-[2-(ethylamino)-5-(1-hydroxy-1-methyl-2-{[2-(trifluoromethyl)pyrimidin-4-yl]oxy}ethyl)pyrimidin-4-yl]piperidine-1-carboxamide]
15.8 nM | CNc1ncc(C(C)(O)COc2ccnc(C(F)(F)F)n2)c(C2CCN(C(=O)Nc3c(F)cccc3F)CC2)n1 (stereo not shown) [Compound D36, N-(2,6-Difluorophenyl)-4-[5-(1-hydroxy-1-methyl-2-{[2-(trifluoromethyl)pyrimidin-4-yl]oxy}ethyl)-2-(methylamino)pyrimidin-4-yl]piperidine-1-carboxamide]
112 nM | COc1ccc(CNc2ncc(C(C)(O)COc3ccnc(C(F)(F)F)n3)c(C3CCN(C(=O)Nc4c(F)cccc4F)CC3)n2)c(OC)c1 (stereo not shown) [Compound D37, 4-[2-({[2,4-Bis(methyloxy)phenyl]methyl}amino)-5-(1-hydroxy-1-methyl-2-{[2-(trifluoromethyl)pyrimidin-4-yl]oxy}ethyl)pyrimidin-4-yl]-N-(2,6-difluorophenyl)piperidine-1-carboxamide]
25.9 nM | CN(C)c1ncc(C(C)(O)COc2ccnc(C(F)(F)F)n2)c(C2CCN(C(=O)Nc3c(F)cccc3F)CC2)n1 (stereo not shown) [Compound D38, N-(2,6-Difluorophenyl)-4-[2-(dimethylamino)-5-(1-hydroxy-1-methyl-2-{[2-(trifluoromethyl)pyrimidin-4-yl]oxy}ethyl)pyrimidin-4-yl]piperidine-1-carboxamide]
5.1 nM | CC(O)(COc1ccnc(C(F)(F)F)n1)c1cnc(NCC(F)F)nc1C1CCN(C(=O)Nc2c(F)cccc2F)CC1 (stereo not shown) [Compound D39, 4-{2-[(2,2-Difluoroethyl)amino]-5-(1-hydroxy-1-methyl-2-{[2-(trifluoromethyl)pyrimidin-4-yl]oxy}ethyl)pyrimidin-4-yl}-N-(2,6-difluorophenyl)piperidine-1-carboxamide]
29.6 nM | CC(C)Oc1ncc(C(C)(O)COc2ccnc(C(F)(F)F)n2)c(C2CCN(C(=O)Nc3c(F)cccc3F)CC2)n1 (stereo not shown) [Compound D40, N-(2,6-Difluorophenyl)-4-{5-(1-hydroxy-1-methyl-2-{[2-(trifluoromethyl)pyrimidin-4-yl]oxy}ethyl)-2-[(1-methylethyl)oxy]pyrimidin-4-yl}piperidine-1-carboxamide]

From patent US10035790B2, “RORγ modulators” (BRISTOL-MYERS SQUIBB COMPANY, priority 2012, dated 2018)
